This note sets out measurements from ChEMBL document CHEMBL4627372, “Spiroseoflosterol, a Rearranged Ergostane-Steroid from the Fruiting Bodies of Butyriboletus roseoflavus” (J Nat Prod, 2020).

The source made the active and inactive calls. The rule behind the calls is not given here.

Series [1] in a line: Cytotoxicity against human Huh7S1 cells after 48 hrs by MTT assay. Type of series: functional, cell-based.
Series [2] is described as follows: Selectivity ratio of IC50 for human LO2 cells to IC50 for human Huh7S1 cells. Type of series: toxicity. Particulars: LO2 cells versus Huh7S1 cells, read-out: Ratio IC50.
The test system of series [3] is HepG2. Description: Cytotoxicity against human HepG2 cells after 48 hrs by MTT assay. It counts as functional, cell-based. The following applies: HepG2, 48 h.
Series [4] in a line: Selectivity ratio of IC50 for human LO2 cells to IC50 for human HepG2 cells. Particulars: LO2 cells versus HepG2 cells, read-out: Ratio IC50. It counts as toxicity.
A further series concerns L02. Description: Cytotoxicity against human LO2 cells after 48 hrs by MTT assay. It counts as cell-based. Particulars: L02, 48 h.
In series [5] the test system is HepG2. In words: Cytotoxicity against human HepG2 cells at 10 uM after 48 hrs by MTT assay. It counts as functional, cell-based. On the technique in general: Formazan colour is commonly taken as a measure of viable cells.

Turning to `CC(C)[C@@H](C)/C=C/[C@@H](C)[C@H]1CC[C@H]2C(=O)[C@@]3(CC[C@]12C)[C@@H](O)C[C@H]1C[C@@H](O)CC[C@@]13C`, the values for the IC50 (in series [1]; in the series on HepG2 [3]; in the series on L02) were 6.2 µM, 9.1 µM and 22.8 µM, respectively. Further, the selectivity ratio in series [2] amounted to 3.7; in series [4], 2.5.

For `CC(C)[C@@H](C)/C=C/[C@@H](C)[C@H]1CCC2=C3C=C[C@H]4C[C@@H](O)CC[C@]4(C)[C@H]3CC[C@@]21C`, the result in the series with HepG2 [5] was inactive.

For `CNC(=O)c1cc(Oc2ccc(NC(=O)Nc3ccc(Cl)c(C(F)(F)F)c3)cc2)ccn1` [SORAFENIB], the IC50 – broadly, the concentration that gives 50% inhibition – came to 5.5 µM in the series with HepG2 [3] and 9.1 µM in the series with L02. Also, the selectivity ratio in series [4] was 1.6.
